From PubChem BioAssay (NCI) come the findings set out here.

Test in all cases: NCI-60 cell line screen, 48 h
Experiment [1] relates to MOLT-4 leukemia.
Experiment [2] concerns SF-295 CNS.
The test system of experiment [3] is 786-0 renal.
For experiment [4], the system named is M14 melanoma.
Experiment [5] relates to NCI/ADR-RES ovarian.
Experiment [6] concerns SF-539 CNS.
In experiment [7] the test system is OVCAR-3 ovarian.
The test system of experiment [8] is UO-31 renal.
Experiment [9] deals with ACHN renal.
Experiment [10] has as its system CAKI-1 renal.

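1) Cells in 96-well plates. 2) Compound, 48 h, 5 concentrations. 3) Linear interpolation between surrounding doses. 4) Unreached endpoint = highest concentration. At the GI50, growth is halved. TGI denotes the concentration required for complete inhibition of growth.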

On to `Nc1ncnc2c1c(-c1ccc(Oc3ccccc3)cc1)nn2C[C@@H]1SSC[C@@H]1O`, for which the GI50 in experiment [1] is 0.0304 µM; in [2] it was 1.47 µM; in experiment [3], 2.75 µM; in experiment [4] it was 0.0212 µM; in experiment [5] it was 1.05 µM; in experiment [6], 1.63 µM. For the same compound, the GI50 is 0.277 µM in experiment [7], 1.54 µM in experiment [8], 0.398 µM in experiment [9] and 1.36 µM in [10]. In addition, the TGI in [1] worked out at 0.119 µM; in experiment [2], 5.49 µM; in [3] it was 11.1 µM; in experiment [4] it was 0.0462 µM; in experiment [5], 7.8 µM; in experiment [6], 26.3 µM. In addition, the TGI worked out at 1.04 µM in experiment [7], 5.63 µM in experiment [8], 7.01 µM in experiment [9] and 5.01 µM in [10].
As for `COc1ccc(/C=C/C(=O)C(C)(C)Br)cc1`, the TGI was 18.9 µM in [1]; 43.9 µM in experiment [2]; 23.7 µM in [3]; 3.79 µM in experiment [4]; above 100 µM in experiment [5]; 32.2 µM in [6]. The TGI was found to be 35 µM in experiment [7], 16.6 µM in experiment [8], 25.7 µM in experiment [9] and 35.7 µM in experiment [10].
Consider `O=C(O)C1C2C=CC(O2)C1C(=O)Nc1ncccn1` (centres undefined), for which the TGI in experiment [1], in [2], in experiment [3], in experiment [4], in experiment [5] and in experiment [6] was above 100 µM in each case. Besides, the TGI in experiment [7], in experiment [8], in [9] and in experiment [10] was above 100 µM each time.
As for `O=C(O)Cn1ccnc1[N+](=O)[O-]`, the TGI in experiment [1], in experiment [2], in [3], in experiment [4], in [5] and in experiment [6] was above 100 µM each time. Besides, the TGI in experiment [7], in experiment [8], in [9] and in experiment [10] was above 100 µM throughout.
With `COc1cc2cc(Oc3ccc(NC(=O)c4cccc5c4OCCO5)cc3)c(C)nc2cc1OC`, the GI50 in experiment [1] was 4.53 µM; in [2], 2.91 µM; in experiment [3], 4.7 µM; in experiment [4], 4.9 µM; in experiment [5], 3.42 µM; in experiment [6], 9.09 µM. For the same compound, the GI50 in [7] is 17.1 µM; in [8], 4.17 µM; in experiment [9], 4.01 µM; in experiment [10], 14.2 µM. In addition, the TGI in experiment [1], in experiment [2], in experiment [3], in experiment [4], in experiment [5] and in [6] was above 100 µM in each case. Moreover, the TGI was above 100 µM in experiment [7], above 100 µM in [8], 27.3 µM in [9] and above 100 µM in experiment [10].
For `Fc1cc(-c2nnc3n2N=C(c2ccc(Cl)cc2Cl)CS3)c(Cl)cc1Cl`, the GI50 in experiment [1] is 75.1 µM; in experiment [2], 36.4 µM; in experiment [3], 47.1 µM; in experiment [4] it was 37.5 µM; in [5], 30.8 µM; in experiment [6], 39.2 µM. In addition, the GI50 in experiment [7] was 22.8 µM; in experiment [8] it was 60.2 µM; in [9], 66.6 µM; in experiment [10], 35.9 µM. The TGI in experiment [1] is above 100 µM; in [2] it was above 100 µM; in experiment [3] it was above 100 µM; in [4], above 100 µM; in [5] it was 99.5 µM; in experiment [6] it was above 100 µM. Further, the TGI in [7] was 88.1 µM; in experiment [8] it was above 100 µM; in experiment [9], above 100 µM; in experiment [10], above 100 µM.
Turning to `CC(C)(CO)N=Cc1ccccc1[O-].CC(C)(CO)N=Cc1ccccc1[O-].[Co+2]`, the GI50 in [1] was 8.39 µM; in [2] it was above 100 µM; in [3], 42.1 µM; in [4] it was 38.7 µM; in experiment [5], above 100 µM; in experiment [6] it was 66.5 µM. Besides, the GI50 in experiment [7] was 36.3 µM; in [8], 44.9 µM; in experiment [9] it was above 81.4 µM; in experiment [10], 53.7 µM. The TGI in experiment [1], in experiment [2], in experiment [3], in experiment [4], in experiment [5] and in experiment [6] was above 100 µM in each case. Besides, the TGI in experiment [7], in [8], in experiment [9] and in [10] was above 100 µM throughout.
As to `COc1ccc(C2ONC3=NCCN32)cc1` (centres undefined), the GI50 in experiment [1] is 37.1 µM; in experiment [2], 93.4 µM; in [3], 25.5 µM; in experiment [4], above 100 µM; in [5], 40.4 µM; in [6], 84.8 µM. The values for the GI50 in [7], in [9] and in experiment [10] were 35.2 µM, 37.1 µM and 48.2 µM, respectively. The TGI in experiment [1], in experiment [2], in experiment [3], in experiment [4], in experiment [5] and in experiment [6] was above 100 µM each time. Further, the TGI in experiment [7], in experiment [9] and in experiment [10] was above 100 µM throughout.
For `CCCCCCCCCCCCCCCCS(=O)(=O)c1ccc(NN)cc1`, the TGI in [1], in experiment [2], in experiment [3], in experiment [4], in experiment [5] and in experiment [6] was above 10 µM each time. The TGI in experiment [7], in experiment [9] and in experiment [10] was above 10 µM each time.
As for `C=CC(=O)Nc1cccc(Nc2nc(Nc3ccc(OCCOC(F)F)cc3)ncc2F)c1`, the GI50 in experiment [1] is 3.73 µM; in [2], 6.04 µM; in experiment [3], 1.32 µM; in experiment [4] it was 2.54 µM; in experiment [5], 2.48 µM; in experiment [7], 2.32 µM. Besides, the GI50 is 1.29 µM in [8], 1.35 µM in [9] and 1.28 µM in [10]. Moreover, the TGI is above 100 µM in [1]; 83.4 µM in experiment [2]; 12.1 µM in experiment [3]; 18.8 µM in [4]; 19.7 µM in [5]; 14.1 µM in [7]. Also, the values for the TGI in experiment [8], in experiment [9] and in [10] were 9.56 µM, 10.4 µM and 10.1 µM, respectively.
For `O=c1oc2ccc(F)cc2c(=O)n1-c1ccc(Br)cc1F`, the GI50 in experiment [2] was 1.82 µM; in [3], 2.79 µM; in [4] it was 0.434 µM; in experiment [5] it was 0.85 µM; in [6] it was 0.45 µM; in [7] it was 0.436 µM. Also, the GI50 in experiment [8] is 0.194 µM; in experiment [9], 0.59 µM; in experiment [10], 0.393 µM. Besides, the TGI was 3.63 µM in experiment [2]; 9.42 µM in [3]; 5.08 µM in experiment [4]; 8.9 µM in [5]; 6.35 µM in experiment [6]; 12.9 µM in experiment [7]. Besides, the figures for the TGI in experiment [8], in [9] and in experiment [10] were 1.7 µM, 13.6 µM and 3.69 µM, respectively.
As for `COc1ccc2c(c1)nc1n2C(c2ccc(F)cc2)SC1` (centres undefined), the GI50 in experiment [1] is 26.8 µM; in [2], 27.9 µM; in experiment [3], 60.8 µM; in experiment [4], 26.3 µM; in experiment [5] it was 20.7 µM; in experiment [7] it was 22.6 µM. Also, the figures for the GI50 in experiment [8], in experiment [9] and in experiment [10] were 23.5 µM, 20.8 µM and 26.2 µM, respectively. For the same compound, the TGI in [1] is above 100 µM; in experiment [2], above 100 µM; in experiment [3] it was above 100 µM; in experiment [4], 83.5 µM; in experiment [5], 45.8 µM; in [7], 65.4 µM. Moreover, the results for the TGI in experiment [8], in experiment [9] and in experiment [10] were 67.9 µM, 47.3 µM and 74.5 µM, respectively.
For the compound `CCOCNc1ccc(N2C(=O)/C(=C/c3ccc(N(CC)CC)cc3)N=C2c2ccccc2)cc1`, the GI50 in experiment [1] was 4.57 µM; in experiment [2], 9.8 µM; in experiment [3], 5.64 µM; in experiment [4], above 100 µM; in experiment [5] it was 33.9 µM; in experiment [6], 4.87 µM. For the same compound, the GI50 in [7] was 28.3 µM; in [9], 17.5 µM; in experiment [10], 12.5 µM. The TGI is above 100 µM in experiment [1]; above 100 µM in experiment [2]; 22.9 µM in experiment [3]; above 100 µM in experiment [4]; above 100 µM in [5]; 26.7 µM in [6]. Besides, the values for the TGI in experiment [7], in [9] and in experiment [10] were above 100 µM, above 100 µM and 56.8 µM, respectively.
